Values after ≈ are worked out from the molar mass of the structure shown.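 Results reflect a 48-hour exposure of cells in 96-well plates to compound at five concentrations. At the GI50, growth is halved. The concentration for full growth arrest is given as TGI.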
Legend:
Assay in all cases: inhibition of tumour cell growth, NCI panel, 48 h
[1] = tested on: ACHN renal
[2] = tested on: HCT-116 colon
[3] = tested on: NCI-H23 lung
[4] = tested on: OVCAR-5 ovarian
[5] = tested on: RPMI-8226 leukemia
[6] = tested on: RXF 393 renal
[7] = tested on: SNB-19 CNS
[8] = tested on: UACC-257 melanoma
[9] = tested on: UACC-62 melanoma
[10] = tested on: MALME-3M melanoma

For O=C1CCCCC2N(C(c3ccccc3)c3ccccc3)CC[C@@]12c1ccccc1 (mixture of isomers), the TGI [1] was > 10 µM, the TGI [2] was > 10 µM and the TGI [3] was > 10 µM. For the same compound, the TGI [4] was > 10 µM, the TGI [5] was 9.31 µM and the TGI [6] was > 10 µM. For the same compound, the TGI [7] was > 10 µM, the TGI [8] was > 10 µM and the TGI [9] was > 10 µM.

O=C1NN(C2=NNC3(C(=O)N2)c2ccccc2-c2ccccc23)C(c2ccccc2)=N/C1=C/c1ccc(O)cc1 was tested, and the GI50 [1] was 41.7 µg/mL, the TGI [1] was > 150 µg/mL and the GI50 [2] was 103 µg/mL (≈ 196 µM). For the same compound, the TGI [2] was > 150 µg/mL, the GI50 [10] was 15 µg/mL and the TGI [10] was 15 µg/mL. The GI50 [3] was 61.5 µg/mL, the TGI [3] was > 150 µg/mL and the GI50 [4] was > 150 µg/mL. For the same compound, the TGI [4] was > 150 µg/mL, the GI50 [5] was 70.6 µg/mL and the TGI [5] was > 150 µg/mL. The GI50 [6] was 97 µg/mL, the TGI [6] was > 150 µg/mL and the GI50 [7] was 94.9 µg/mL. For the same compound, the TGI [7] was > 150 µg/mL, the GI50 [8] was 113 µg/mL and the TGI [8] was > 150 µg/mL. It also gave a GI50 [9] of 33.5 µg/mL and a TGI [9] of 92.2 µg/mL.

For Clc1ccccc1/C=C/c1cscn1, the TGI [1] was > 100 µM, the TGI [2] was > 100 µM and the TGI [10] was > 100 µM. For the same compound, the TGI [3] was > 100 µM, the TGI [4] was > 100 µM and the TGI [5] was > 100 µM. For the same compound, the TGI [6] was > 100 µM, the TGI [7] was > 100 µM and the TGI [8] was > 100 µM. The TGI [9] was > 100 µM.

Cc1nc2ccccc2n1C(=O)c1c(F)c(F)c(F)c(F)c1F showed a TGI [1] of 60.7 µM, a TGI [2] of 21.8 µM and a TGI [10] of 57.5 µM. The TGI [3] was 56.2 µM, the TGI [4] was 40.8 µM and the TGI [5] was 38.3 µM. The TGI [6] was 33.5 µM, the TGI [7] was > 100 µM and the TGI [8] was 39.1 µM. For the same compound, the TGI [9] was 44.1 µM.

For N#Cc1c(Cl)c2cc([N+](=O)[O-])ccc2n2c1nc1ccccc12, the TGI [1] was 13.6 µM, the TGI [2] was > 100 µM and the TGI [10] was 24.1 µM. The TGI [3] was 35.8 µM, the TGI [4] was 16.5 µM and the TGI [5] was > 22.5 µM. For the same compound, the TGI [6] was 5.39 µM, the TGI [7] was 20.3 µM and the TGI [8] was 56 µM. The TGI [9] was 35.4 µM.

Work on C=CC1(C)CCC2=C(CCC3C(C)(C(=O)OC)CCCC23C)C1=O (stereo unspecified) yielded a TGI [1] of 31.9 µM, a TGI [2] of 31.1 µM and a TGI [10] of 32.8 µM. For the same compound, the TGI [3] was 54.5 µM, the TGI [4] was 29.5 µM and the TGI [5] was 55.9 µM. For the same compound, the TGI [7] was > 100 µM, the TGI [8] was 55.9 µM and the TGI [9] was 33.7 µM.

Work on Cc1cc(O)c(C(C)(C)C)cc1Sc1cc(C(C)(C)C)c(O)cc1C yielded a GI50 [1] of 2.89 µM, a TGI [1] of 10 µM and a GI50 [10] of 2.32 µM. The TGI [10] was 5.71 µM, the GI50 [3] was 3.49 µM and the TGI [3] was 11.8 µM. It also gave a GI50 [4] of 1.93 µM, a TGI [4] of 4 µM and a GI50 [5] of 2.97 µM. The TGI [5] was 15.8 µM, the GI50 [6] was 1.82 µM and the TGI [6] was 3.39 µM. For the same compound, the GI50 [7] was 3.72 µM, the TGI [7] was 13 µM and the GI50 [8] was 2.28 µM. The TGI [8] was 6.89 µM, the GI50 [9] was 1.32 µM and the TGI [9] was 3.11 µM.

Source: PubChem BioAssay (NCI)
